Experimental data: patent US20110086875A1, “Powdered Medicament for Nasal Delivery of Ascorbic Acid for Reducing Apomorphine Induced Toxicity to Ciliated Tissue” (BRITANNIA PHARMACEUTICALS LIMITED, priority 2007, published 2011)

System: ciliated tissue taken from the trachea of a chick embryo
Assay: Cilia beat frequency (CBF) model
Assay type: cell-based
Description: By “toxic” herein is meant that the active agent has an adverse effect on the cilia beat frequency of ciliated tissue taken from the trachea of a chick embryo according to the model that is well known in the art (“The Effect of Nasal Drug Formulations on Ciliary Beating in Vitro,” Romeijn, et al.; Int. J. Pharm., 135; 1996: 137-145; “Classification of Cilio-Inhibiting Effects of Nasal Drugs,” Merkus, et al., Laryngoscope, 111(4); April 2001: 595-602). By “ameliorating said toxicity” herein is meant that the adverse effect of the active agent on the cilia beat frequency is lessened as a result of the inclusion in the medicament of ascorbic acid for co-administration with said active agent. […]
The cilia beat frequency (CBF) model is a recognised technique to investigate the relative toxicity of substances applied in solution to a section of ciliated tissue taken from the trachea of a chick embryo (Romeijn, et al., 1996, Merkus, et al., 2001). […] The tissue is then transferred to a well containing 1.0 ml of test solution and the impact on CBF assessed. Further, the reversibility of any effects can be measured by washing the tissue in Locke-Ringer solution 15 minute post administration and evaluating the recovery of CBF.

effect of adding ascorbic acid on the apomorphine-induced arrest of cilia beat movement (1% wt. ascorbic acid added to 1% apomorphine in MLR solution, single administration, FIG. 1)	SMILES	reversibility of toxic effect on CBF after washing
ameliorated significantly	O=C1O[C@H]([C@@H](O)CO)C(O)=C1O [ascorbic acid]	
	CN1CCc2cccc3c2[C@H]1Cc1ccc(O)c(O)c1-3 [apomorphine]	irreversible
